Assay results: patent US20080226718A1, “Indole and Azaindole Derivatives For the Treatment of Inflammatory and Autoimmune Diseases” (Brane Discovery S.r.l, priority 2005, published 2008)

Tests used:
[1] = system: encephalitogenic lymphocytes; experiment: Spontaneous adhesion of encephalitogenic T cells on purified VCAM-1; format: cell-based, SJL mice
Method: Spontaneous adhesion of encephalitogenic lymphocytes was measured in adhesion assays on purified ICAM-1 and VCAM-1 as previously described (Constantin G. et al., J. Immunol. 162, 1144-1149, 1999). Autoreactive T cells were obtained from SJL mice immunized with PLP139-151 as described (Piccio L. et al., J. Immunol. 168, 1940-1949, 2002). Lymphocytes were treated with test compound at concentrations between 5-100 μM for 1 h, while control/untreated cells were treated with vehicle (DMSO). Results are expressed as percentage of inhibition over control (=100%) ±S.D and are the mean of three-four experiments.
ICAM-1 and VCAM-1 are adhesion molecules from the family of immunoglobulins and control the migration of lymphocytes through the endothelium during inflammatory responses. Encephalitogenic T cells are activated lymphocytes displaying spontaneous adhesion on ICAM-1 and VCAM-1 and have increased migration capacities in inflammation sites. Spontaneous adhesion of encephalitogenic lymphocytes was measured in adhesion assays on purified ICAM-1 and VCAM-1 as described in the method.

[2] = system: experimental autoimmune encephalomyelitis (EAE); experiment: EAE, preventive model; format: in vivo
Method: Female SJL/J mice, 6-8 weeks of age, were obtained from Harlan-Nossan Italy. Mice were immunized s.c. with 200 μg PLP139-151 in 0.1 ml emulsion consisting of equal volumes of PBS and CFA (Difco Laboratories, Detroit, Mich.) and containing 6 mg/ml of Mycobacterium tuberculosis H37Ra (Difco). To induce a severe disease, in some experiments 400 ng Pertussis toxin (PTX) was administered i.v. at days 0 and 2 (Constantin, G. et al. Eur. J. Immunol., 28, 3523-3529, 1998). Mice were scored for EAE according to the following scale: 0, no disease; 1, tail weakness; 2, paraparesis; 3, paraplegia; 4, paraplegia with forelimb weakness or paralysis; 5, moribund or dead animals (Brocke S. et al., Autoimmune disease models. Academic Press, San Diego, 1-4, 1994).
Test compound was administered daily at 60 mg/kg i.p. for 17 days starting from the day of immunization. Control animals received vehicle (DMSO).
The effects of compound of Example 1 (PCT/EP2005/051908) were determined on EAE (experimental autoimmune encephalomyelitis), the animal model of multiple sclerosis (Tables 4 and 5). SJL mice were immunized with PLP139-151 peptide from cerebral proteolipid. The disease model has relapses and remission periods, as described in relapsing-remitting MS, the most frequent form of human disease accounting for 85% of all MS patients.
In the preventive model (Table 4), mice received 60 mg/kg daily of Compound of Example 1 (PCT/EP2005/051908), intraperitoneally, for 17 days starting from the day of immunization. Control animals received vehicle (DMSO). Control animals developed disease with a mean day of onset of 13±1.5. Mean maximum clinical score in control animals was 2.7±0.3. All control mice that developed disease also presented clinical relapses.

NADPH-oxidase = experiment: Respiratory burst (H2O2 assay), NADPH-oxidase activation in monocytes; format: cell-based; settings: PMA 200 ng/ml; 10, 50, 100 μM; FIG. 1b
Method: NADPH-oxidase activation was measured as induction of H2O2 release (derived from dismutation of O2^−) triggered in PMNs and monocytes by PMA (200 ng/ml). Briefly, PMNs and monocytes were pretreated at 37° C. for 30-60 min with test compound at different concentrations, and stimulated with phorbol 12-myristate 13-acetate (PMA, 200 ng/ml) dissolved in 0.5 ml of a standard reaction mixture. Release of H2O2 was evaluated in real time at time points of 5 min by using a microplate fluorescence reader (Perkin-Elmer). Results are expressed as nmoles of H2O2 released over time by 10^6 cells. Shown are dose-response curves of inhibitory effect on H2O2 release over 60 min.

[3] = preventive, 60 mg/kg i.p. daily for 17 days from immunization

`COC(=O)c1[nH]c2cc(OC)c(OC)cc2c1-c1ccc(OC)cc1` [Example 1] was tested, and the “Blocking spontaneous adhesion to VCAM-1, in words” value [1] was “very efficient”, the inhibition at 5 µM ([1]; Mus musculus, Lymphocyte, [cpd] 5 μM, 1 h, read-out: Inhibition of Spontaneous Adhesion in encephalitogenic lymphocytes (% of control/non-treated cells) VCAM-1) was 46% and the inhibition at 10 µM ([1]; Mus musculus, Lymphocyte, [cpd] 10 μM, 1 h, read-out: Inhibition of Spontaneous Adhesion in encephalitogenic lymphocytes (% of control/non-treated cells) VCAM-1 (converted)) was 66%. The inhibition at 25 µM ([1]; Mus musculus, Lymphocyte, [cpd] 25 μM, 1 h, read-out: Inhibition of Spontaneous Adhesion in encephalitogenic lymphocytes (% of control/non-treated cells) VCAM-1 (converted)) was 74%, the inhibition at 50 µM ([1]; Mus musculus, Lymphocyte, [cpd] 50 μM, 1 h, read-out: Inhibition of Spontaneous Adhesion in encephalitogenic lymphocytes (% of control/non-treated cells) VCAM-1 (converted)) was 92.4% and the “Visible toxicity (appearance of animals, macroscopic pathological analysis)” value ([2]; 60 mg/kg i.p. daily for 17 days) was “neither the treatment caused any visible toxicity”. For the same molecule, the “Development of clinical signs of disease, in words” value ([2]; preventive, 60 mg/kg i.p. daily for 17 days) was “completely blocked”, the Disease incidence [2, 3] was 0/6 and the Mortality [2, 3] was 0/6. The “Mean maximum clinical score” value ([2]; preventive, 60 mg/kg i.p. daily for 17 days from immunization, scale 0-5) was 0, the Clinical relapses ([2]; preventive, observation period of 61 days) was “no treated animals developed clinical relapses” and the “NADPH-oxidase activation (H2O2 release) in monocytes, in words” value (NADPH-oxidase) was “inhibits NADPH-oxidase activation”.
